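Where inhibition never reached the appropriate level, the endpoint shown equals the highest concentration tested. Otherwise, values were interpolated linearly from a five-concentration, 48-hour dose response in 96-well plates. At the GI50, growth is halved. TGI denotes the concentration required for complete inhibition of growth.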
Experiments:
Test in all cases: growth of human tumour cells (NCI), 48 h
SNB-19 CNS = test system: SNB-19 CNS
COLO 205 colon = test system: COLO 205 colon
SF-268 CNS = test system: SF-268 CNS
OVCAR-5 ovarian = test system: OVCAR-5 ovarian
NCI-H522 lung = test system: NCI-H522 lung
U251 CNS = test system: U251 CNS
SK-MEL-5 melanoma = test system: SK-MEL-5 melanoma
UO-31 renal = test system: UO-31 renal
OVCAR-4 ovarian = test system: OVCAR-4 ovarian
OVCAR-3 ovarian = test system: OVCAR-3 ovarian

| SMILES | TGI (SNB-19 CNS) | TGI (COLO 205 colon) | TGI (SF-268 CNS) | TGI (OVCAR-5 ovarian) | TGI (NCI-H522 lung) | TGI (U251 CNS) | TGI (SK-MEL-5 melanoma) | TGI (UO-31 renal) | TGI (OVCAR-4 ovarian) | TGI (OVCAR-3 ovarian) | GI50 (SNB-19 CNS) | GI50 (COLO 205 colon) | GI50 (SF-268 CNS) | GI50 (OVCAR-5 ovarian) | GI50 (NCI-H522 lung) | GI50 (U251 CNS) | GI50 (SK-MEL-5 melanoma) | GI50 (UO-31 renal) | GI50 (OVCAR-4 ovarian) | GI50 (OVCAR-3 ovarian) |
| --- | --- | --- | --- | --- | --- | --- | --- | --- | --- | --- | --- | --- | --- | --- | --- | --- | --- | --- | --- | --- |
| COc1cc2cc(OC(C)=O)c3cc4c(cc3c2c(OC)c1OC)OCO4 | > 100 µM | > 100 µM | > 100 µM | > 100 µM | > 100 µM | > 100 µM | > 100 µM | > 100 µM | > 100 µM | > 100 µM | – | – | – | – | – | – | – | – | – | – |
| Nc1nc(/C=C\c2ccc([N+](=O)[O-])s2)nc(N2CCN(c3ccccc3)CC2)n1 | 77 µM | 32.1 µM | 80 µM | 98.3 µM | 31.5 µM | 56 µM | – | 43.7 µM | > 100 µM | 35.9 µM | 30.5 µM | 15.4 µM | 27.2 µM | 40 µM | 16 µM | 21.6 µM | 0.157 µM | 18.7 µM | 40.6 µM | 19 µM |
| COc1ccc2ncn(-c3cc(O[C@H](C)c4ccccc4C(F)(F)F)c(C(N)=O)s3)c2c1 | 11.3 µM | 3.24 µM | 8.95 µM | 14.9 µM | 2.51 µM | 6.24 µM | 3.55 µM | 12.4 µM | 16.1 µM | 0.863 µM | 1.88 µM | 0.0838 µM | 0.235 µM | 0.162 µM | 0.0995 µM | 0.166 µM | 0.169 µM | 1.79 µM | 3.49 µM | 0.0858 µM |
| COC(=O)c1cc2c(=O)n(C)c3ccccc3n2c1C(=O)OC | > 100 µM | > 100 µM | > 100 µM | > 100 µM | 73.7 µM | 58.8 µM | > 100 µM | > 100 µM | > 100 µM | > 100 µM | – | – | – | – | – | – | – | – | – | – |
| COc1cc(/C=C2\CC3C4CC=C5C[C@@H](OC(C)=O)CC[C@]5(C)C4CC[C@]3(C)C2=O)ccc1OCCN1CCCCC1 (some centres undefined) | 43.3 µM | 30.4 µM | 31.4 µM | 7.42 µM | 25.7 µM | 8.26 µM | 3.08 µM | 4.99 µM | 49 µM | 5.29 µM | 8.46 µM | 3.14 µM | 3.39 µM | 3.83 µM | 7.28 µM | 2.41 µM | 1.71 µM | 1.98 µM | 15.1 µM | 2.05 µM |
| C=C(C)[C@H]1CC[C@@]2(C)C(C1)[C@H](C)CC[C@@H]2O (some centres undefined) | > 100 µM | > 100 µM | > 100 µM | > 100 µM | > 100 µM | > 100 µM | > 100 µM | > 100 µM | > 100 µM | > 100 µM | – | – | – | – | – | – | – | – | – | – |
| Cc1c(-c2cnccn2)ssc1=S | > 100 µM | > 100 µM | 99 µM | > 100 µM | > 89.8 µM | > 100 µM | > 100 µM | > 89.7 µM | > 100 µM | > 100 µM | – | – | – | – | – | – | – | – | – | – |
| CN(CCS(=O)(=O)N1C(=O)C2CCCN2C(=O)[C@@H]1Cc1ccccc1)C(=O)OCc1ccccc1 (some centres undefined) | > 100 µM | > 100 µM | > 100 µM | > 100 µM | > 100 µM | > 100 µM | > 100 µM | > 100 µM | > 100 µM | > 100 µM | – | – | – | – | – | – | – | – | – | – |
| COc1ccc(Nc2nc3cc(N)cc(N)c3nc2-c2ccccc2)cc1 | > 100 µM | 29.2 µM | 30.6 µM | 53.4 µM | 27.9 µM | 29.8 µM | 28.6 µM | 34.2 µM | 22.1 µM | 37.3 µM | 33.8 µM | 15.7 µM | 13 µM | 21.5 µM | 14.7 µM | 16.3 µM | 15.3 µM | 16.6 µM | 10.4 µM | 17.3 µM |
| COc1ccc(C2(Cl)c3ccccc3N(c3ccccc3)c3ccccc32)cc1 | 2.43 µM | 2.45 µM | 2.88 µM | 7.64 µM | 2.94 µM | 1.29 µM | 1.31 µM | 10.8 µM | 2.81 µM | 1.47 µM | 0.637 µM | 0.421 µM | 0.758 µM | 2.19 µM | 0.444 µM | 0.0505 µM | 0.266 µM | 0.846 µM | 0.447 µM | 0.307 µM |
| COc1c/c(=C2\C=c3ccccc3=N2)[nH]/c1=C\c1[nH]c(C)cc1C | > 88.7 µM | 13.6 µM | 37.7 µM | > 56.5 µM | > 41.9 µM | 6.28 µM | 0.0352 µM | 0.32 µM | 4.83 µM | 0.202 µM | 2.99 µM | 0.0155 µM | 0.0631 µM | 0.25 µM | 0.493 µM | < 0.0337 µM | < 0.0105 µM | < 0.0106 µM | 0.0638 µM | < 0.0109 µM |
| COc1cc2c(cc1OC(C)C)[C@H](c1ccc(Cl)cc1)N(c1ccc(N(C)CC3CCC(N4CCN(C)C(=O)C4)CC3)cc1)C(=O)C2 (some centres undefined) | 14.7 µM | 7.36 µM | 8.72 µM | 9.58 µM | 10.4 µM | 8.44 µM | 2.84 µM | 2.22 µM | 9.85 µM | 7.07 µM | 4.07 µM | 2.59 µM | 3.01 µM | 2.66 µM | 3.9 µM | 3.34 µM | 1.44 µM | 0.305 µM | 2.99 µM | 2.6 µM |
| CNC(=O)c1ccc(N2C(=S)N(c3cnc(C#N)c(C(F)(F)F)c3)C(=O)C23CCC3)cc1F | > 100 µM | > 100 µM | > 100 µM | > 100 µM | > 100 µM | > 100 µM | > 100 µM | > 100 µM | > 100 µM | > 100 µM | > 100 µM | > 100 µM | > 100 µM | > 100 µM | > 100 µM | > 100 µM | > 100 µM | > 72.1 µM | > 79.2 µM | > 100 µM |
| CCc1nc(N)nc(N)c1-c1ccc(Cl)c([N+](=O)[O-])c1 | > 100 µM | 55.5 µM | > 100 µM | > 100 µM | > 100 µM | > 100 µM | 48.8 µM | > 100 µM | > 100 µM | > 100 µM | – | – | – | – | – | – | – | – | – | – |

Reference: PubChem BioAssay (NCI)
